Data reported in US9505763B2, “Cancer treatment using BMP inhibitor” (Vanderbilt University, priority 2011, dated 2016).

Legend:
Assay type in all cases: cell-based
[1] = system: Id1, Id2, and Id3 expression; assay: Quantitative RT-PCR for Id family members; conditions: A549 and H1299 cell lines; 10 μM Dorsomorphin, 1 μM DMH1 or DMH2; 48 hours
Procedure: Quantification of Gene Expression. RNA was extracted using the RNeasy kit as per the manufacturer's instructions (Qiagen, Valencia, Calif.). DNAase was used to remove any DNA contamination. cDNA was generated using Advantage RT for PCR kit (BD BiosciencesClontech, Palo Alto, Calif.). Quantitative PCR was performed with the Stratagene Mx3005p (Agilent Technologies) and predesigned validated Taq-Man gene expression assays according to the manufacturer's specifications (Applied Biosystems, Foster City, Calif.). Reference numbers used are: GAPDH (Hs99999905_m1), ACVRL1 (alk1) (Hs00163543_m1), ACVR1A (alk2) (Hs00153836_m1), BMR1A (alk3) (Hs00831730_s1), BMPR1B (alk6) (Hs00176144_m1), Id1 (Hs00357821_g1), Id2 (Hs00747379_m1), and Id3 (Hs00171409-m1). Negative control included all reagents except cDNA. Expression was normalized to GAPDH using the formula […].

H1299 cells [2] = assay: Trypan blue cell death counts; conditions: 4 days
H1299 cells [3] = assay: BrdU incorporation assay; conditions: 1 μM or 5 μM
Procedure: BrdU Assay. Thirty-thousand H1299 cells were plated into 96 well plates. The next day the cells were treated with 1 μM DMSO, 5 μM DMSO, 1 μM DMH2, or 5 μM DMH2 for 24 and 48 hours. BrdU incorporation was measured using the Cell Proliferation ELISA, BrdU colorimetric kit as per manufacture's instruction (Roche, Indianapolis, […]). Cells were incubated with BrdU labeling solution for 2 hours, fixed/denatured, and BrdU located with a peroxidase-conjugated anti-BrdU antibody. Knockdown of all type I BMP receptors were performed in the H1299 cells by transfecting siRNA for alk2, alk3, and alk6 or control siRNA. Three days after transfection BrdU incorporation was determined. Studies were performed 4 times in triplicate.

A549 cells = assay: Cell counts after 7 days; conditions: DMEM 5% FCS, 10 μM Dorsomorphin or 1 μM DMH1, DMH2, LDN
Procedure: (§1) Cell Counts. A549 and H1299 cells were plated into 6 well plates with 100,000 cells per well. Cells were treated with DMSO or a BMP receptor antagonist for 7 days. The cells were detached with trypsin, stained with trypan blue, and the number of live cells counted using a hemacytometer.

H1299 cells [4] = assay: Cell counts after 7 days
Procedure: as §1

Smad 1/5/8 activity = assay: BRE-luciferase reporter assay; conditions: H1299 cells; 10 μM Dorsomorphin or 1 μM DMH1, DMH2, LDN; 48 hours; vs DMSO
Procedure: Luciferase Assays. 10^6 H1299 cells were transfected with 2 μg of BRE-luciferace plasmid using a Nucleofector II. […] Cells were lysed with luciferase lysis buffer (Promega). Samples were added to luciferase assay substrate (Promega) and luminsescence measured by the TD-20/20 Luminometer (Turner Designs/Turner BioSystems, Sunnyvale, Calif.). Control samples included luciferase assay substrate alone and luciferase assay substrate plus 1× reporter lysis buffer.

CN(C)CCCOc1ccc(-c2cnc3c(-c4ccnc5ccccc45)cnn3c2)cc1 [DMH2]
Id1, Id2, and Id3 expression (mRNA) [1]: significantly decreased
percentage of dead cells (trypan blue) (H1299 cells [2]; H1299 cultured in SFM, 1 μM, compared with DMEM 5% FCS): even higher
cell death (percentage of dead cells, trypan blue) (H1299 cells [2]; H1299 in DMEM 5% FCS, 1 μM and 5 μM): significant increased in cell death, which was dose dependent
proliferation (BrdU incorporation) (H1299 cells [3]; 24 hours): dose dependent decrease in proliferation
proliferation (BrdU incorporation) (H1299 cells [3]; 48 hours): more profound effect
cell growth (number of cells) (A549 cells): significantly more growth inhibition than DMH1
cell growth (number of cells) (H1299 cells [4]; H1299, DMEM 5% FCS, 10 μM Dorsomorphin or 1 μM DMH1, DMH2, LDN): significantly more growth inhibition than DMH1
cell growth (number of cells) (H1299 cells [4]; H1299 cultured in SFM, 1 μM): significant inhibition of cell growth
Smad 1/5/8 activity (BRE-luciferase activity) (Smad 1/5/8 activity): significant decrease
